According to US12187663B2, “Thyromimetics with a biphenylmethane scaffold and their use” (INTERNATIONAL SOCIETY FOR DRUG DEVELOPMENT S.R.L., priority 2019, dated 2025):

Key:
hepatocytes = assay: Mitotic activity of hepatocytes (BrdU incorporation); type: in vivo, F344 rats; conditions: 3 days; for hepatocyte proliferation (mitogenic effect): i.p. injection 75 μg/100 g b.w.; for hepatocyte proliferation (BrdU incorporation): intragastric (i.g.) 50, 75 and 100 μg/100 g b.w.
Text: FIG. 7. […] A. Labeling Index (L.I.) of hepatocytes from F344 rats subjected to the treatment with test compounds was expressed as number of BrdU-positive hepatocyte nuclei/100 nuclei. Results were expressed as means±S.E. of 3-5 rats per group. At least 3000 hepatocytes per liver were scored. *P<0.05; **P<0.01.
(§1) Five-week-old male F-344 rats purchased from Charles River (Milano, Italy) were maintained on a standard laboratory diet (Ditta Mucedola, Milano, Italy). The animals were given food and water ad libitum with a 12-h light/dark daily cycle and were acclimated for 1 week before the start of the experiment. All procedures were performed in accordance with the Guidelines for the Care and Use of Laboratory Animals and were approved by the Italian Ministry of Health. […] A control group received the vehicle (DMSO 5% in corn oil). Additional two groups received daily injections of either IS25 or TG68 at the dose of 75 μg/100 g b.wt. intraperitoneally for 3 days. For the measurement of hepatocyte proliferation, animals received bromodeoxyuridine (BrdU; 1 g/1 L) in drinking water during the 3-day treatment period (FIGS. 7A and B).

[1] = Liver/body weight ratio in rats; type: in vivo, F344 male rats; conditions: 3 days daily; IS25 or TG68 50, 75, 100 μg/100 g b.w. i.g. or 75 μg/100 g i.p.; T3 20 μg/100 g b.w.
Procedure: as §1
A control group received the vehicle (DMSO 5% in corn oil). Additional two groups received daily injections of either IS25 or TG68 at the dose of 75 μg/100 g b.w. intraperitoneally for 3 days.

AMPK = assay: Western blot of phosphorylated AMPK in HepG2 cells; type: cell-based, Human; conditions: twenty-four hours of treatment, dose dependent
Procedure: Human hepatocellular carcinoma cells (HepG2), obtained from American Type Culture Collection (Manassas, Va., USA), were cultured in low-glucose (LG) Dulbecco's modified Eagle's medium (DMEM) ([…], Invitrogen, Carlsbad, Calif., USA) or high-glucose (HG) DMEM ([…]) supplemented with 10% fetal bovine serum (FBS) and […] penicillin/streptomycin in an atmosphere of 5% CO2 at 37° C. These cells were then treated with tested compounds at various concentrations for 24 h. After treatments, cells were lysed in a buffer containing 20 mM Tris-HCl (pH 7.5), 0.9% NaCl, 0.2% Triton X-100, and 1% of the protease inhibitor cocktail (Sigma-Aldrich, Milan, Italy) and then stored at −80° C. for further western blot analysis. All the analyses were conducted on cells between the third and the sixth passage.
Proteins (20-30 μg) were separated on CriterionTGX™ gel (4-20%) and transferred on Immuno-PVDF membrane (Biorad, Milan, Italy) for 1 h. Blots were incubated with the primary antibody at 4° C. overnight. All the polyclonal antibodies for the protein of interest were purchased from Santa Cruz Biotechnology, Inc., Dallas, TX, USA. Then, blots were washed 3 times for 10 minutes with 1×TBS, 0.1% Tween® 20 and incubated for 1 h with secondary antibody (peroxidase-coupled anti rabbit in 1×TBS, 0.1% Tween®20). […] Band densitometric analysis was performed using Image Lab Software (Biorad, Milan, Italy).
The liver is a major organ responsible for most functions of cellular metabolism and a mediator between dietary and endogenous sources of energy for extrahepatic tissues. In this context, AMPK constitutes an intrahepatic energy sensor regulating physiological energy dynamics by limiting anabolism and stimulating catabolism, thus increasing ATP availability. Once activated, AMPK phosphorylates its downstream substrates to reduce ATP-consuming anabolic pathways, including cholesterol, fatty acid, and triacylglycerol synthesis, and increases ATP-generating catabolic pathways, including fatty acid oxidation and lipolysis. […]

| SMILES | hepatocyte proliferation (mitogenic effect) (hepatocytes) | hepatocyte proliferation (BrdU incorporation) (hepatocytes) | liver/body weight ratio [1] | expression of p-AMPK (AMPK) |
| --- | --- | --- | --- | --- |
| Cc1cc(OCC(=O)O)cc(C)c1Cc1ccc(N)c(C(C)C)c1 [IS25, 2-(4-(4-amino-3-isopropylbenzyl)-3,5-dimethylphenoxy)acetic acid] | the mitogenic effect was lost | induced a dose dependent hepatocyte proliferation | no such effect was observed | significantly (p<0.05) increased |
| CC(=O)Nc1ccc(Cc2c(C)cc(OCC(=O)O)cc2C)cc1C(C)C [TG68, 2-(4-(4-acetamido-3-isopropylbenzyl)-3,5-dimethylphenoxy)acetic acid] | the mitogenic effect was lost | induced a dose dependent hepatocyte proliferation | no such effect was observed | significantly (p<0.05) increased |
